Data reported in ChEMBL document CHEMBL4765394, “From irreversible to reversible covalent inhibitors: Harnessing the andrographolide scaffold for anti-inflammatory action” (Eur J Med Chem, 2020).
Calls of active or inactive are those of the source. No cut-off for these calls is given here.

Experiments:
[1] = GSH reactivity in PBS assessed as isomerization measured up to 24 hrs by HPLC-MS analysis; assay type: ADME; details: buffer
[2] = Aqueous stability of compound; assay type: physicochemical; details: buffer
[3] = GSH reactivity in PBS assessed as GSH adduct formation by measuring half life by HPLC-MS analysis; assay type: ADME
[4] = GSH reactivity in PBS assessed as GSH adduct formation measured up to 8 hrs by HPLC-MS analysis; assay type: ADME; details: buffer
RAW-Blue [5] = experiment: Inhibition of LPS-induced NF-kappaB activity in mouse RAW-Blue cells assessed as reduction in SEAP reporter activity at 5 to 20 uM preincubated for 1 hr followed by LPS stimulation and measured after 8 hrs by SEAP reporter gene assay; assay type: cell-based; details: dose 5-20 µM, time 9.0 hrs
RAW264.7 [6] = experiment: Antiinflammatory activity in mouse RAW264.7 cells assessed as inhibition of LPS-induced IL6 release at 5 to 10 uM preincubated for 1 hr followed by LPS stimulation and measured after 24 hrs by ELISA; assay type: functional, cell-based; details: dose 5-10 µM, time 25.0 hrs
RAW264.7 [7] = experiment: Cytotoxicity against mouse RAW264.7 cells assessed as reduction cell viability at 5 uM measured after 24 hrs by Celltiter-glo assay; assay type: cell-based; details: raw264.7, 24 h
RAW-Blue [8] = experiment: Inhibition of LPS-induced NF-kappaB activity in mouse RAW-Blue cells assessed as reduction in SEAP reporter activity at 5 to 20 uM preincubated for 1 hr followed by LPS stimulation and measured after 24 hrs by SEAP reporter gene assay; assay type: cell-based; details: dose 5-20 µM, time 25.0 hrs
RAW264.7 [9] = experiment: Antiinflammatory activity in mouse RAW264.7 cells assessed as inhibition of LPS-induced TNFalpha release at 5 to 10 uM preincubated for 1 hr followed by LPS stimulation and measured after 4 hrs by ELISA; assay type: functional, cell-based; details: dose 5-10 µM, time 5.0 hrs
RAW264.7 [10] = experiment: Antiinflammatory activity in 4 hrs NAC-pretreated mouse RAW264.7 cells assessed as inhibition of LPS-induced TNFalpha release at 10 uM preincubated for 1 hr followed by LPS stimulation and measured after 4 hrs by ELISA relative to control; assay type: functional; details: time 5 hrs
RAW264.7 [11] = experiment: Cytotoxicity against mouse RAW264.7 cells assessed as reduction cell viability at 5 to 50 uM measured after 24 hrs by Celltiter-glo assay; assay type: cell-based; details: raw264.7, 24 h, dose 5-50 µM
[12] = molecular target: T1, Nuclear factor NF-kappa-B p105 subunit (Homo sapiens) (UniProt P19838); experiment: Inhibition of DNA binding activity of human NF-kappaB p50 measured after 1 hr by ELISA
T1 sequence (whole entry): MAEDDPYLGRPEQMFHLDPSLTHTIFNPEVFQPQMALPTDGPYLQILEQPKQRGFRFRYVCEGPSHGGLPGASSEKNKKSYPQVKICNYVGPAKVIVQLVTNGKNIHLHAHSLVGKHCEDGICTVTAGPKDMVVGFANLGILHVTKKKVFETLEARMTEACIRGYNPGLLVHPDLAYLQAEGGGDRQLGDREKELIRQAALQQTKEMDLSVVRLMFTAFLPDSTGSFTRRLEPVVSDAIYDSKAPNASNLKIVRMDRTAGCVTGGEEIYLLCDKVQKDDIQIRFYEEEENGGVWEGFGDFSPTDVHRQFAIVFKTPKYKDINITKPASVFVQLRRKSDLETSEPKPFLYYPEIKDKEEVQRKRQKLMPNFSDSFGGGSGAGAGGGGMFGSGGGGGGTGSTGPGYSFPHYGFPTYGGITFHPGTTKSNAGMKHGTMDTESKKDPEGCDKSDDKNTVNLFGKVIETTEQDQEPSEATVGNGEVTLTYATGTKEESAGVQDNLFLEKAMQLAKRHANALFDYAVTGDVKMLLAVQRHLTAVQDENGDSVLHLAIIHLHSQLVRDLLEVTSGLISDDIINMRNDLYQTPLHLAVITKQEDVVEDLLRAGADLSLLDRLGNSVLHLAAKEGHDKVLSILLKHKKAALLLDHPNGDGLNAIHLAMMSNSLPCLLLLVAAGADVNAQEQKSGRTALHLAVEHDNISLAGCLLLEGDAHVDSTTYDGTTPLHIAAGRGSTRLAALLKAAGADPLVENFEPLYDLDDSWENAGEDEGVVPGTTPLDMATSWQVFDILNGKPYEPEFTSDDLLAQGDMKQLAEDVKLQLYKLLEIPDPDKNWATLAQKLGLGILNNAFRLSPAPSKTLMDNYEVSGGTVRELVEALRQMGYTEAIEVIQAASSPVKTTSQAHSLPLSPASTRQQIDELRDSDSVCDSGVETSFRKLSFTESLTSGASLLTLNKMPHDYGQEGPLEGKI

RAW264.7 [13] = experiment: Activation of JNK phosphorylation in BSO-treated mouse RAW264.7 cells at 50 uM measured after 4 hrs by Western blot analysis
RAW264.7 [14] = experiment: Activation of JNK phosphorylation in mouse RAW264.7 cells at 50 uM measured after 4 hrs by Western blot analysis; assay type: cell-based
RAW-Blue [15] = experiment: Activation of NF-kappaB activity in mouse RAW-Blue cells assessed as increase in SEAP reporter activity at 30 uM measured after 24 hrs in presence of p38 inhibitor SB203580 by SEAP reporter gene assay; assay type: cell-based
Mus musculus [16] = experiment: Antiinflammatory activity in LPS-induced BALB/c mouse model of acute lung injury assessed as reduction in neutrophil cell count at 1 mg/kg, ip administered twice daily for 4 days starting 1 hr post LPS challenge by differential staining based flow cytometry relative to control; assay type: functional; design: scale not given: the % may be the effect or the level left; details: time 4 day
[17] = molecular target: T1, Nuclear factor NF-kappa-B p105 subunit (Homo sapiens); experiment: Binding affinity to human NF-kappaB p50 assessed as compound-adduct formation by MALDI-TOF analysis
[18] = molecular target: RAC-alpha serine/threonine-protein kinase (Mus musculus) (UniProt P31750); experiment: Inhibition of LPS-induced AKT activation in BSO-treated mouse RAW264.7 cells assessed as reduction in AKT phosphorylation at 10 uM preincubated for 1 hr followed by LPS-stimulation measured after 4 hrs by Western blot analysis; details: time 5.0 hrs
Mus musculus [19] = experiment: Antiinflammatory activity in ip dosed LPS-induced BALB/c mouse model of acute lung injury assessed as reduction in neutrophil cell count administered twice daily for 4 days starting 1 hr post LPS challenge by differential staining based flow cytometry; assay type: functional, organism-based; details: time 4.0 day
[20] = molecular target: RAC-alpha serine/threonine-protein kinase (Mus musculus) (UniProt P31750); experiment: Inhibition of LPS-induced AKT activation in mouse RAW264.7 cells assessed as reduction in AKT phosphorylation measured after 4 hrs by Western blot analysis; assay type: cell-based
RAW264.7 [21] = experiment: Antiinflammatory activity in 2 hrs NAC-pretreated mouse RAW264.7 cells assessed as inhibition of LPS-induced TNFalpha release at 10 uM preincubated for 1 hr followed by LPS stimulation and measured after 4 hrs by ELISA relative to control; assay type: functional; details: time 5 hrs
Mus musculus [22] = experiment: Antiinflammatory activity in LPS-induced BALB/c mouse model of acute lung injury assessed as reduction in total cell count at 1 mg/kg, ip administered twice daily for 4 days starting 1 hr post LPS challenge by differential staining based flow cytometry relative to control; assay type: functional; design: scale not given: the % may be the effect or the level left; details: time 4 day
[23] = Cytotoxicity against HEK293 cells assessed as reduction in cell viability measured after 24 hrs by Celltiter-glo assay; assay type: cell-based; details: human
[24] = Cytotoxicity against human L02 cells assessed as reduction in cell viability measured after 24 hrs by Celltiter-glo assay; assay type: cell-based
RAW-Blue [25] = experiment: Activation of NF-kappaB activity in mouse RAW-Blue cells assessed as increase in SEAP reporter activity at 5 to 20 uM measured after 24 hrs by SEAP reporter gene assay; assay type: cell-based; details: dose 5-20 µM
RAW264.7 [26] = experiment: Antiinflammatory activity in 24 hrs NAC-pretreated mouse RAW264.7 cells assessed as inhibition of LPS-induced TNFalpha release at 10 uM preincubated for 1 hr followed by LPS stimulation and measured after 4 hrs by ELISA relative to control; assay type: functional; details: time 5 hrs
Mus musculus [27] = experiment: Antiinflammatory activity in ip dosed LPS-induced BALB/c mouse model of acute lung injury assessed as reduction in total cell count administered twice daily for 4 days starting 1 hr post LPS challenge by differential staining based flow cytometry; assay type: functional, organism-based; details: time 4.0 day
[28] = molecular target: T2, Mitogen-activated protein kinase 1 and 3 (ERK2 and ERK1) (Mus musculus) (UniProt P63085+Q63844); experiment: Inhibition of LPS-induced ERK1/2 activation in BSO-treated mouse RAW264.7 cells assessed as reduction in ERK1/2 phosphorylation at 10 uM preincubated for 1 hr followed by LPS-stimulation measured after 4 hrs by Western blot analysis; details: time 5.0 hrs
[29] = Effect on total AKT expression in LPS-induced mouse RAW264.7 cells at 5 to 20 uM measured after 4 hrs by Western blot analysis; details: raw264.7, 4 h, dose 5-20 µM
[30] = molecular target: T2, Mitogen-activated protein kinase 1 and 3 (ERK2 and ERK1) (Mus musculus); experiment: Inhibition of LPS-induced ERK1/2 activation in mouse RAW264.7 cells assessed as reduction in ERK1/2 phosphorylation at 20 uM measured after 4 hrs by Western blot analysis; assay type: cell-based
RAW-Blue [31] = experiment: Inhibition of LPS-induced NF-kappaB activity in mouse RAW-Blue cells assessed as reduction in SEAP reporter activity at 5 to 20 uM preincubated for 1 hr followed by LPS stimulation and measured after 8 to 24 hrs by SEAP reporter gene assay; assay type: cell-based; details: dose 5-20 µM, time 25.0 hrs
RAW264.7 [32] = experiment: Cytotoxicity against mouse RAW264.7 cells assessed as reduction cell viability at 20 uM measured after 24 hrs by Celltiter-glo assay; assay type: cell-based; details: raw264.7, 24 h
RAW264.7 [33] = experiment: Cytotoxicity against BSO-treated mouse RAW264.7 cells assessed as reduction cell viability measured after 24 hrs by Celltiter-glo assay; assay type: cell-based; details: raw264.7, 24 h, dose 10-20 µM
RAW264.7 [34] = experiment: Antiinflammatory activity in BSO-treated mouse RAW264.7 cells assessed as inhibition of LPS-induced TNFalpha release at 2.5 to 10 uM preincubated for 1 hr followed by LPS stimulation and measured after 4 hrs by ELISA; assay type: functional, cell-based; details: dose 2.5-10 µM, time 5.0 hrs

Chain of RAC-alpha serine/threonine-protein kinase (Mus musculus) (P31750 whole entry): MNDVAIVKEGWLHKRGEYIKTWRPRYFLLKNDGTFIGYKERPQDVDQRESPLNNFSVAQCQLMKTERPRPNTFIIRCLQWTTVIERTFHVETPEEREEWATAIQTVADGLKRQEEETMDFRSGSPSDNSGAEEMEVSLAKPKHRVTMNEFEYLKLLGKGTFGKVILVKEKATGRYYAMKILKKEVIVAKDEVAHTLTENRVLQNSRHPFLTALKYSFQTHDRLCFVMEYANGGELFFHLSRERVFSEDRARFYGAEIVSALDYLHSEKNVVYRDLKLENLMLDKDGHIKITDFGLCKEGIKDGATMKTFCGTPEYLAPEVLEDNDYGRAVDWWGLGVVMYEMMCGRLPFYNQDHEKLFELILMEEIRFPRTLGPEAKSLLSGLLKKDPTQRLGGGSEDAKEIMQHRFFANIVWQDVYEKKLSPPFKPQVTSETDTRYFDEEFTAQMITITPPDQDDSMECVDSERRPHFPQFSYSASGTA
T2 sequence (P63085 whole entry, looked up): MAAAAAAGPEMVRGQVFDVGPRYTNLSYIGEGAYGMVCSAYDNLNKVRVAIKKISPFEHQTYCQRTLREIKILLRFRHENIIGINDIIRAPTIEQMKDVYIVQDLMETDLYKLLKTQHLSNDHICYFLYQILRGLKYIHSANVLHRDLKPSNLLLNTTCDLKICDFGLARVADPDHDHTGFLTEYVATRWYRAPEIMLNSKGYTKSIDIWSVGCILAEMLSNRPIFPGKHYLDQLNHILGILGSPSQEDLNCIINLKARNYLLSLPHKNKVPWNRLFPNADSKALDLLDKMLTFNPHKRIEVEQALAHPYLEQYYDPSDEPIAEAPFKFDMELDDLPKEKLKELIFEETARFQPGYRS
T2 sequence (Q63844 whole entry, looked up): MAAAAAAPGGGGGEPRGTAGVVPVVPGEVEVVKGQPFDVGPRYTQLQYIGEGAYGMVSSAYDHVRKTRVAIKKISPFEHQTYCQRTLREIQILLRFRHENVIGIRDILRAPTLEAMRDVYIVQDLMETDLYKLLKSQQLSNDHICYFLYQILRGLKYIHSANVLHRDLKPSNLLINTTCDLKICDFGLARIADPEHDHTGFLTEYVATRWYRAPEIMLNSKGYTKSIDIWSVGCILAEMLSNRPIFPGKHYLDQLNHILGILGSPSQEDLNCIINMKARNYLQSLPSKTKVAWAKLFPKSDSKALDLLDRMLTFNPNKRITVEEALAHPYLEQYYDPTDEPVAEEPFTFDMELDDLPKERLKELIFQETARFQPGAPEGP

Structure (SMILES) | Drug metabolism [1] | Stabilty [2] | t1/2 [3] [h] | K [4] [M⁻¹ s⁻¹] | inhibition (RAW-Blue [5]) | inhibition (RAW264.7 [6]) | inhibition (RAW-Blue [8]) | inhibition (RAW264.7 [9]) | inhibition at 10 µM (RAW264.7 [10]) [%] | Activity (RAW-Blue [15]) | inhibition at 10 µM (RAW264.7 [21]) [%] | CC50 at 24 h [23] [µM] | CC50 at 24 h [24] [µM] | inhibition at 10 µM (RAW264.7 [26]) [%] | other results
C=C1CC[C@@H]2[C@](C)(CO)[C@H](O)CC[C@@]2(C)[C@@H]1C/C=C/C(=O)c1ccccc1 | Metabolite_Notdetected | Stable | 2.12 | 6.036e-05 | Active | Active | Active | Active |  |  |  |  |  |  | Activity (RAW264.7 [7]): Toxic
C=C1CC[C@@H]2[C@](C)(CO)[C@H](O)CC[C@@]2(C)[C@@H]1C/C=C/C(C)=O | Metabolite_Notdetected | Stable | 6.47 | 2.11e-05 | Active | Active | Active | Active | 23 | inactive | 12 | 67 | 30.1 | 51 | Activity (RAW264.7 [11]): Toxic; inhibition [12]: Dose-dependent effect; Activity (RAW264.7 [13]): inactive; Activity (RAW264.7 [14]): inactive; Activity (Mus musculus [16]): >30%; Activity [17]: Active; inhibition [18]: Active; Activity (Mus musculus [19]): Dose-dependent effect; inhibition [20]: Dose-dependent effect; Activity (Mus musculus [22]): >30%; Activity (RAW-Blue [25]): inactive; Activity (Mus musculus [27]): Dose-dependent effect; inhibition [28]: Active; Activity [29]: Non-Toxic; inhibition [30]: Active
C=C1CC[C@@H]2[C@](C)(CO)[C@H](O)CC[C@@]2(C)[C@@H]1C/C=C1/C(=O)OC[C@H]1O [ANDROGRAPHOLIDE] |  | Stable | 5.46 | 2.44e-05 |  | Active |  | Active | 30 | inactive | 17 | 26.2 | 14.7 | 62 | Activity (RAW264.7 [13]; filed as activator): Active; Activity (RAW264.7 [14]; filed as activator): Active; inhibition (RAW-Blue [31]): inactive; Activity (RAW264.7 [32]): Toxic; Activity (RAW-Blue [25]; filed as activator): Active; CC50 (RAW264.7 [33]): 10 µM; inhibition (RAW264.7 [34]): Active
